Data from patent US20020076402A1, “Enzyme-based fungicidal composition” (Universite Pierre et Marie Curie, priority 1998, published 2002).

Columns and labels:
corn = assay: Pelliculisation of corn: degree of germination; format: in vivo
Description: When the test is applied to pelliculised grains or seeds, the degree of germination is determined by the number of grains germinated over the total number of grains, and compared with those of non pelliculised batches, or grains that are pelliculised grains in the absence of enzymes and/or their substrate.
Chitinases alone: quantity used to pelliculise 3 to 4 g of corn naturally contaminated with the phytopathogenic fungi Fusarium nivale and Fusarium roseum: 100 mg of CNase was mixed with 3.4 ml of a suspension of Sepiret 7017 Argent composed of 3.6 g of the commercial suspension and 10 ml of water.
Laminarinases alone: quantity used to pelliculise 2 g of contaminated corn: 40 mg of freeze-dried LMase with a filter of 17 units/mg were mixed with 2 ml of a suspension of Sepiret 7017 Argent composed of 3 g of the commercial suspension and 5 ml of water.
Lysozyme alone: quantity used to pelliculise 2 g of contaminated corn: 100 mg of LZ was mixed with 2 ml of a suspension of Sepiret 7017 Argent composed of 5 g of the commercial suspension and 7.1 ml of water.
(§1) Germination inhibition test: The pelliculised grains were placed in Petri dishes containing the growth medium. On the fifth day, the degree of contamination (number of contaminated grains/total number of grains) and degree of germination (number of germinated grains/total number of grains) were determined and compared with those of batches pelliculised with Sepiret 01G alone.
(§2) Formulation: An aqueous suspension of Sepiret 7017 Argent composed of 7 g of commercial slip and 10 ml of water was used. 100 mg of the substances shown below was mixed with 2 ml of the above suspension and this mixture was used to pelliculise batches of 2 g of corn. This latter originated from a culture naturally contaminated with Fusarium nivale and Fusarium roseum: […]
(§3) Mixtures tested: (quantities used to pelliculise 2 g of corn: […]

[1] = test system: Fusarium nivale and Fusarium roseum; assay: Pelliculisation of corn: degree of contamination by Fusarium sp.; format: in vivo
Description: as §1, §2, §3

[2] = Example 4, 100 mg substance in 2 ml Sepiret 7017 Argent suspension per 2 g corn, day five
[3] = Example 3 mono-enzymatic mixtures in Sepiret 7017 Argent, fifth day

Molecule | Germination (corn; [2]) | Contamination [1, 2] | effect on degree of contamination (in words) ([1]; Example 4, vs reference) | relative variation of degree of germination (corn; Example 3, vs own control) | Degree of germination (corn; [3]) | inhibition of Fusarium sp. fungi (in words) ([1]; Example 3, enzyme alone) | Degree of contamination [1, 3]
CC(=O)N[C@H]1C(O)O[C@H](CO)[C@@H](O)[C@@H]1O (stereo partly shown) [NAG, N-acetylglucosamine, reference compound] | 65% | 70% | no effect | – | – | – | –
lysozyme hydrochloride [LZ] | – | – | – | +20% | 85% | no effect | 65%
